This is an account of results in US20250051319A1 (AUGUSTINE THERAPEUTICS, priority 2021, published 2025).

Structures are written as SMILES.

Experiment [1] has as its target T1, human full-length recombinant HDAC1 (Homo sapiens (Human), UniProt Q13547). The experiment can be described thus: HDAC1 enzymatic activity assay (Reaction Biology Corporation, RHKKAc fluorogenic peptide). It is filed as biochemical. The note with it: Reaction Biology Corporation protocol, RHKKAc fluorogenic peptide 10 μM; read-out: HDAC1 biochem. The procedure: (§1) Dose response testing of HDAC6 and HDAC 1 were run at Reaction Biology Corporation (RBC). Inhibition of HDAC enzymes was performed using N-terminal GST tagged human full-length recombinant HDAC6 (H88-30G, SignalChem) and C-terminal FLAG His tag human full-length recombinant HDAC1 produced in insect cells (KDA-21-365, RBC). Enzyme reactions were run in 50 mM Tris-HCl, pH8.0, 137 mM NaCl, 2.7 mM KCl, and 1 mM MgCl2 with 1 mg/ml BSA, 1% DMSO freshly added. 2× enzyme was delivered in the wells of the reaction plate except for the “no enzyme” control wells. In the latter, buffer was added. Compounds in 100% DMSO were delved into the enzyme mixture by acoustic technology (Echo550). Plates are spun down and compounds were incubation with the enzyme for 10 min at room temperature. 2× Fluorogenic peptide from p53 residues 379-382 (RHKKAc, 10 μM final concentration) was added in all wells to initiate the reaction, followed by 1 h incubation at 30° C. Developer containing Trichostatin A was added to stop the reaction and generate fluorescent color. A kinetic measurement was carried out for 20 min with 5 min interval on the Envision plate reader (Perkin Elmer, Ex/Em=360/460). End point reading i.e., plateau of the development reaction was used for analysis. Data was reported by RBC as percentage enzyme activity. Percentage inhibition was calculated by subtracting percentage enzyme activity from 100. IC50 values were calculated using GraphPad Prism 9 based on the log(inhibitor) vs. response—Variable slope (four parameters) equation.

The target of experiment [2] is T2, human full-length recombinant HDAC6 (Homo sapiens (Human), UniProt Q9UBN7). In words: HDAC6 enzymatic activity assay (Reaction Biology Corporation, RHKKAc fluorogenic peptide). In kind it is biochemical. The note with it: Reaction Biology Corporation protocol, RHKKAc fluorogenic peptide 10 μM; read-out: HDAC6 biochem. The protocol: as §1
The target in experiment [3] is catalytic domain 2 (CD2) of HDAC6 (Homo sapiens (Human), UniProt Q9UBN7). In words: Cellular target engagement assay - NanoBRET. In kind it is cell-based. The note with it: NanoLuc-HDAC6(CD2) in HEK293T cells, 2 hours, read-out: IC50 (HDAC6(CD2) interaction).
The target of experiment [4] is T1, human full-length recombinant HDAC1. The experiment can be described thus: HDAC1 enzymatic activity assay (alternative protocol, Ac-Gly-Ala-Lys(Ac)-AMC). It is filed as biochemical. The note with it: 4 nM enzyme, read-out: HDAC1 biochem. The method, boiled down:
(§2)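 Sf9-expressed enzymes (4 nM HDAC1, 5 nM HDAC6) preincubated 10 min at RT with compound, then 60 min with Ac-Gly-Ala-Lys(Ac)-AMC ([…] HDAC1, 40 µM HDAC6); pH 8.0 Tris buffers, HDAC6 buffer with EDTA and DTT. Trypsin/SAHA developer stop, fluorescence 360/450 nm after 15 min; normalized to DMSO (100%) and 10 μM SAHA (0%).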

Experiment [5] concerns the target T2, human full-length recombinant HDAC6. The experiment can be described thus: HDAC6 enzymatic activity assay (alternative protocol, Ac-Gly-Ala-Lys(Ac)-AMC). It is filed as biochemical. The note with it: 5 nM enzyme, read-out: HDAC6 biochem. The method, boiled down:
as §2

T2 sequence (Q9UBN7 whole entry, the tested form may be a part): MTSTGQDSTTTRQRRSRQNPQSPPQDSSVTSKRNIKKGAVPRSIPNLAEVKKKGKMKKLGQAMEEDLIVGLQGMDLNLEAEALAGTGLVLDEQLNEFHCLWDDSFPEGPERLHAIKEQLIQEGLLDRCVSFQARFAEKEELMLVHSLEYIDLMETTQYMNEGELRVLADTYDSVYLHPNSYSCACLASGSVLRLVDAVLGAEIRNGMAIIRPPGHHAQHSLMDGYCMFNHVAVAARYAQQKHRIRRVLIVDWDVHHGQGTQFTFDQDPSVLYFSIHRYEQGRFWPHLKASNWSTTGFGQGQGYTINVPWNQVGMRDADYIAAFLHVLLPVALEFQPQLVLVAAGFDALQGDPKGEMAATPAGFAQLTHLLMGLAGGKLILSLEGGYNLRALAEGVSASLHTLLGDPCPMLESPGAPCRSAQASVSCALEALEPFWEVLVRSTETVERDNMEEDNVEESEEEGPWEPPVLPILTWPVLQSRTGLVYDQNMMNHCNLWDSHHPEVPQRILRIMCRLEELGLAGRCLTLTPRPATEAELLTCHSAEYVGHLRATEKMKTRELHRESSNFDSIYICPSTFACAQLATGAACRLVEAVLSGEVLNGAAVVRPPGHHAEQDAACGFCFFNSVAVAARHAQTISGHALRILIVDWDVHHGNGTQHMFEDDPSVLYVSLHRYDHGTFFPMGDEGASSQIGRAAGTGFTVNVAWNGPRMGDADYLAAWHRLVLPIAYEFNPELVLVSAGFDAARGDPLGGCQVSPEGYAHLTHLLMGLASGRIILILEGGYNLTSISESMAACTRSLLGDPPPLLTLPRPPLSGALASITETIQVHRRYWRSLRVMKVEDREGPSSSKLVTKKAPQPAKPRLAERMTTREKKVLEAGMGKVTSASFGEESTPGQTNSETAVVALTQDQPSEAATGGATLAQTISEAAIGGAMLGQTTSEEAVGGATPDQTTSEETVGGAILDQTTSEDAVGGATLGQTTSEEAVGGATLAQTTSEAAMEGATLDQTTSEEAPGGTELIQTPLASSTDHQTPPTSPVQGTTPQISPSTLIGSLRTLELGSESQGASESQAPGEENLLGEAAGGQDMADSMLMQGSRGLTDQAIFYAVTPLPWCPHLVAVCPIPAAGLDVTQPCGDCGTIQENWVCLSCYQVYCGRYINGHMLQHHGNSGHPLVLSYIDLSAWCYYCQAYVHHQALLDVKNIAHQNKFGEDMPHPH
T1 sequence (Q13547 whole entry): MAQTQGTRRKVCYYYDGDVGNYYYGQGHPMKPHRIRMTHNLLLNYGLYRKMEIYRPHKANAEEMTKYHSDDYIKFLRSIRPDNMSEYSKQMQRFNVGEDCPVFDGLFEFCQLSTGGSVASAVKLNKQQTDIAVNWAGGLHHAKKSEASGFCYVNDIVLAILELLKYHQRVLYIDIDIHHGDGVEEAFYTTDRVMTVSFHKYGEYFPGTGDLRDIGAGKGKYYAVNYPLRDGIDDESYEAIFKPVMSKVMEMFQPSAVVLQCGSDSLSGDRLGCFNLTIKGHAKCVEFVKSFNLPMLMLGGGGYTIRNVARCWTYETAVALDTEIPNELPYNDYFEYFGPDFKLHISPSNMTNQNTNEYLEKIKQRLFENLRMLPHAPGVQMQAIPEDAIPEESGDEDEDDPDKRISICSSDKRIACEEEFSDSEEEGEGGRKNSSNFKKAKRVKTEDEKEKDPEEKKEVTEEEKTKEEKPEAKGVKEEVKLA
Chain of catalytic domain 2 (CD2) of HDAC6 (Q9UBN7 482-800): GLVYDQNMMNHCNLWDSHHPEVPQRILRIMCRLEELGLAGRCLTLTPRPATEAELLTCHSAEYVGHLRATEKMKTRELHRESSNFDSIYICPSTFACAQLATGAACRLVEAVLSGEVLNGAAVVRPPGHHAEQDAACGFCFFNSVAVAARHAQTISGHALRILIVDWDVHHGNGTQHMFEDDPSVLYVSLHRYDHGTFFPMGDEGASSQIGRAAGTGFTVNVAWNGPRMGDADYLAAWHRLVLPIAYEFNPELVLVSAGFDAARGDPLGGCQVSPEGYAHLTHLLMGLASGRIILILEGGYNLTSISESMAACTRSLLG

`Cn1cc2c(SCC(=O)c3ccc(CNC(=O)CO)s3)nc(C(F)(F)F)nc2n1` [Compound 61, 2-hydroxy-N-((5-(2-((2-methyl-6-(trifluoromethyl)-2H-pyrazolo[3,4-d]pyrimidin-4-yl)thio)acetyl)thiophen-2-yl)methyl)acetamide]: the IC50 in experiment [1] was above 10000 nM; in experiment [2], at most 100 nM; in experiment [3] it was at most 100 nM.

As to `Cc1nc(SCC(=O)c2ccc(CNC(=O)CO)s2)c2cccnc2n1` [Compound 64, 2-hydroxy-N-((5-(2-((2-methylpyrido[2,3-d]pyrimidin-4-yl)thio)acetyl)thiophen-2-yl)methyl)acetamide], the IC50 in experiment [1] is above 10000 nM; in experiment [2] it was at most 100 nM; in experiment [3], at most 100 nM.

On to `Cn1cc2c(SCC(=O)c3ccc(CNC(=O)CO)s3)nc(C(F)F)nc2n1` [Compound 69, N-((5-(2-((6-(difluoromethyl)-2-methyl-2H-pyrazolo[3,4-d]pyrimidin-4-yl)thio)acetyl)thiophen-2-yl)methyl)-2-hydroxyacetamide], for which the IC50 was at most 100 nM in experiment [2] and 100 to 500 nM in experiment [3].

`COc1cc2c(SCC(=O)c3ccc(CNC(=O)CO)s3)nc(C)nc2cc1F` [Compound 75, N-((5-(2-((7-fluoro-6-methoxy-2-methylquinazolin-4-yl)thio)acetyl)thiophen-2-yl)methyl)-2-hydroxyacetamide]: the IC50 in experiment [1] was above 10000 nM.

Turning to `COc1cc(F)c2nc(C)nc(SCC(=O)c3ccc(CNC(=O)CO)s3)c2c1` [Compound 108, N-((5-(2-((8-fluoro-6-methoxy-2-methylquinazolin-4-yl)thio)acetyl)thiophen-2-yl)methyl)-2-hydroxyacetamide], the IC50 in experiment [2] is at most 100 nM; in experiment [3], 100 to 500 nM.

`COc1ccc2nc(C)nc(SCC(=O)c3ccc(CN(C)C(=O)CO)s3)c2c1` [Compound 109, 2-hydroxy-N-((5-(2-((6-methoxy-2-methylquinazolin-4-yl)thio)acetyl)thiophen-2-yl)methyl)-N-methylacetamide]: the IC50 in experiment [2] is at most 100 nM; in experiment [3], 500 to 1000 nM.

As for `CN(Cc1ccc(C(=O)CSc2nc(C(F)(F)F)nc3nn(C)cc23)s1)C(=O)CO` [Compound 116, 2-hydroxy-N-methyl-N-((5-(2-((2-methyl-6-(trifluoromethyl)-2H-pyrazolo[3,4-d]pyrimidin-4-yl)thio)acetyl)thiophen-2-yl)methyl)acetamide], the IC50 in experiment [2] is at most 100 nM; in experiment [3] it was 100 to 500 nM.

For the compound `Cc1nc(SCC(=O)c2ccc(CNC(=O)CO)s2)c2ncccc2n1` [Compound 153, 2-hydroxy-N-((5-(2-((2-methylpyrido[3,2-d]pyrimidin-4-yl)thio)acetyl)thiophen-2-yl)methyl)acetamide], the IC50 in experiment [2] and in experiment [3] was at most 100 nM throughout.

In the case of `COc1cc2c(SCC(=O)c3ccc(CNC(=O)CO)s3)nc(C(F)(F)F)nc2cn1` [Compound 154, 2-hydroxy-N-((5-(2-((6-methoxy-2-(trifluoromethyl)pyrido[3,4-d]pyrimidin-4-yl)thio)acetyl)thiophen-2-yl)methyl)acetamide], the IC50 in experiment [2] and in experiment [3] was at most 100 nM in each case.

Take `COc1ccc2nc(C)nc(SCC(=O)c3ccc(CNC(=O)CO)s3)c2c1F` [Compound 158, N-((5-(2-((5-fluoro-6-methoxy-2-methylquinazolin-4-yl)thio)acetyl)thiophen-2-yl)methyl)-2-hydroxyacetamide]: the IC50 in experiment [2] and in experiment [3] was at most 100 nM throughout.

As for `COc1cc2c(SCC(=O)c3ccc(CN(C)C(=O)CO)s3)nc(C(F)(F)F)nc2cn1` [Compound 159, 2-hydroxy-N-((5-(2-((6-methoxy-2-(trifluoromethyl)pyrido[3,4-d]pyrimidin-4-yl)thio)acetyl)thiophen-2-yl)methyl)-N-methylacetamide], the IC50 in experiment [2] and in experiment [3] was at most 100 nM each time.

`CCOc1cnc2nc(C)nc(SCC(=O)c3ccc(CNC(=O)CO)s3)c2c1` [Compound 160, N-((5-(2-((6-ethoxy-2-methylpyrido[2,3-d]pyrimidin-4-yl)thio)acetyl)thiophen-2-yl)methyl)-2-hydroxyacetamide]: the IC50 in experiment [2] and in experiment [3] was at most 100 nM in each case.

`COc1cnc2nc(C(F)F)nc(SCC(=O)c3ccc(CNC(=O)CO)s3)c2c1` [Compound 164, N-((5-(2-((2-(difluoromethyl)-6-methoxypyrido[2,3-d]pyrimidin-4-yl)thio)acetyl)thiophen-2-yl)methyl)-2-hydroxyacetamide]: the IC50 in experiment [2] and in experiment [3] was at most 100 nM each time.

In the case of `CC(C)(C)C(=O)NCCc1ccc(C(=O)CSc2nc(C(F)(F)F)nc3ccccc23)s1` [Example 29, N-(2-(5-(2-((2-(trifluoromethyl)quinazolin-4-yl)thio)acetyl)thiophen-2-yl)ethyl)pivalamide], the IC50 is above 10000 nM in experiment [4], 100 to 500 nM in experiment [3] and at most 100 nM in experiment [5].

With `Cn1ncc2c(SCC(=O)c3ccc(CNC(=O)c4ccccc4)s3)ncnc21` [Example 30, N-((5-(2-((1-methyl-1H-pyrazolo[3,4-d]pyrimidin-4-yl)thio)acetyl)thiophen-2-yl)methyl)benzamide], the IC50 in experiment [4] was above 10000 nM; in experiment [3], at most 100 nM; in experiment [5], at most 100 nM.

`CN(Cc1ccc(C(=O)CSc2ncnc3c2cnn3C)s1)C(=O)C(C)(C)C` [Example 33, N-methyl-N-((5-(2-((1-methyl-1H-pyrazolo[3,4-d]pyrimidin-4-yl)thio)acetyl)thiophen-2-yl)methyl)pivalamide]: the IC50 in experiment [4] was above 10000 nM; in experiment [3], 100 to 500 nM; in experiment [5], at most 100 nM.

On to `CN(Cc1ccc(C(=O)CSc2ncnc3c2cnn3C)s1)C(=O)C1CC1` [Example 34, N-methyl-N-((5-(2-((1-methyl-1H-pyrazolo[3,4-d]pyrimidin-4-yl)thio)acetyl)thiophen-2-yl)methyl)cyclopropanecarboxamide], for which the figures for the IC50 in experiment [4], in experiment [3] and in experiment [5] were above 10000 nM, 100 to 500 nM and at most 100 nM, respectively.

For the compound `Cc1nc(SCC(=O)c2ccc(CNC(=O)C3CC3)s2)c2ccccc2n1` [Example 35, N-((5-(2-((2-methylquinazolin-4-yl)thio)acetyl)thiophen-2-yl)methyl)cyclopropanecarboxamide], the values for the IC50 in experiment [4], in experiment [3] and in experiment [5] were above 10000 nM, 100 to 500 nM and at most 100 nM, respectively.

Turning to `O=C(CSc1nc(C(F)(F)F)nc2ccccc12)c1ccc(CCNC(=O)C2CC2)s1` [Example 36, N-(2-(5-(2-((2-(trifluoromethyl)quinazolin-4-yl)thio)acetyl)thiophen-2-yl)ethyl)cyclopropanecarboxamide], the IC50 was above 10000 nM in experiment [4], at most 100 nM in experiment [3] and at most 100 nM in experiment [5].

As for `O=C(NCCc1ccc(C(=O)CSc2nc(C(F)(F)F)nc3ccccc23)s1)c1ccccc1` [Example 37, N-(2-(5-(2-((2-(trifluoromethyl)quinazolin-4-yl)thio)acetyl)thiophen-2-yl)ethyl)benzamide], the results for the IC50 in experiment [4], in experiment [3] and in experiment [5] were above 10000 nM, 1000 to 10000 nM and at most 100 nM, respectively.

Regarding `CC(C)(C)C(=O)NCc1ccc(C(=O)CSc2nc(C(F)(F)F)nc3ccccc23)s1` [Example 38, N-((5-(2-((2-(trifluoromethyl)quinazolin-4-yl)thio)acetyl)thiophen-2-yl)methyl)pivalamide], the IC50 was above 10000 nM in experiment [4], at most 100 nM in experiment [3] and at most 100 nM in experiment [5].

With `CC(C)(C)C(=O)NCc1ccc(C(=O)CSc2nncc3ccccc23)s1` [Example 193, N-((5-(2-(phthalazin-1-ylthio)acetyl)thiophen-2-yl)methyl)pivalamide], the IC50 in experiment [4] is above 10000 nM; in experiment [3] it was 100 to 500 nM; in experiment [5] it was at most 100 nM.

As to `Cc1nnc(SCC(=O)c2ccc(CNC(=O)C(C)(C)C)s2)c2ccccc12` [Example 194, N-((5-(2-((4-methylphthalazin-1-yl)thio)acetyl)thiophen-2-yl)methyl)pivalamide], the IC50 is above 10000 nM in experiment [4], 100 to 500 nM in experiment [3] and at most 100 nM in experiment [5].
